Measurements as given in patent publication US6444617B1, “Fused-heterocycle dicarboxylic acid diamide derivatives or salts thereof, herbicide and usage thereof” (Nihon Nohyaku Co., Ltd., priority 1998, dated 2002).

What was measured:
Type in all cases: in vivo
[1] = test system: barnyard grass (Echinochloa crus-galli Beauv.); assay: Test Example 1: herbicidal effect on paddy field weeds before emergence; settings: Dosage 5 kg/ha
Procedure, shortened: (§1)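 Grading reflects percent control relative to untreated plots, evaluated three weeks post-application. Treatment was a soil application of compound solution, predetermined dose, made to paddy-state pots before weed seeds germinated.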

[2] = test system: bulrush (Scirpus juncoides Roxb.); assay: as above; settings: Dosage 5 kg/ha
Procedure, shortened: as §1

[3] = test system: barnyard grass (Echinochloa crus-galli Beauv.); assay: Test Example 2: herbicidal effect on paddy field weeds after emergence; settings: Dosage 5 kg/ha; one-leaved stage; 21 days after treatment
Procedure, shortened: (§2)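 Weeds in flooded paddy-soil pots were grown to the one-leaved stage, then the soil was treated with the compound solution at a set dosage.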

[4] = test system: bulrush (Scirpus juncoides Roxb.); assay: as above; settings: Dosage 5 kg/ha; one-leaved stage; 21 days after treatment
Procedure, shortened: as §2

[5] = test system: monochoria (Monochoria vaginalis Presl); assay: as above; settings: Dosage 5 kg/ha; one-leaved stage; 21 days after treatment
Procedure, shortened: as §2

[6] = test system: barnyard grass (Echinochloa crus-galli Beauv.), Ec; assay: Test Example 3: herbicidal effect on upland weeds before emergence; settings: dosage 5 kg/ha
Procedure, shortened: (§3)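 Steps: sow upland weed seeds; spray liquid formulation of active ingredient at prescribed concentration prior to emergence; after 14 days, calculate weed-killing rate; judge herbicidal effect.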

[7] = test system: bird's eye speedwell (Veronica persica Poir.), Vp; assay: as above; settings: dosage 5 kg/ha
Procedure, shortened: as §3

[8] = test system: cleavers (Galium aparine L.), Ga; assay: as above; settings: dosage 5 kg/ha
Procedure, shortened: as §3

[9] = test system: cocklebur (Xanthium strumarium L.), Xs; assay: as above; settings: dosage 5 kg/ha
Procedure, shortened: as §3

[10] = test system: forxtail grass (Alopecurus aequalis var. amurensis Ohwi), Am; assay: as above; settings: foxtail grass, dosage 5 kg/ha
Procedure, shortened: as §3

[11] = test system: velvetleaf (Abutilon theophtasti L.), At; assay: as above; settings: dosage 5 kg/ha
Procedure, shortened: as §3

soybean plant (So) = assay: Test Example 3: phytotoxicity to upland crop plants, treatment before emergence; settings: dosage 5 kg/ha
Procedure, shortened: (§4)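 Pre-emergence spray of a liquid preparation at a prescribed compound concentration. Soybean and wheat injury was scored against a phytotoxicity criterion 14 days after treatment, alongside weed control.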

wheat (Wh) = assay: as above; settings: dosage 5 kg/ha
Procedure, shortened: as §4

[12] = test system: barnyard grass (Echinochloa crus-galli Beauv.), Ec; assay: Test Example 4: herbicidal effect on upland weeds after emergence; settings: dosage 5 kg/ha; sprayed after emergence; judged 14 days after treatment
Procedure, shortened: (§5)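 Weeds and soybean grown in soil-filled vats to set leaf stages, then sprayed post-emergence with the compound at a prescribed concentration. Weed-killing rate and crop phytotoxicity judged 14 days after treatment.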

[13] = test system: bird's eye speedwell (Veronica persica Poir.), Vp; assay: as above; settings: dosage 5 kg/ha; sprayed after emergence; judged 14 days after treatment
Procedure, shortened: as §5

[14] = test system: cleavers (Galium aparine L.), Ga; assay: as above; settings: dosage 5 kg/ha; sprayed after emergence; judged 14 days after treatment
Procedure, shortened: as §5

[15] = test system: cocklebur (Xanthium strumarium L.), Xs; assay: as above; settings: dosage 5 kg/ha; sprayed after emergence; judged 14 days after treatment
Procedure, shortened: as §5

[16] = test system: forxtail grass (Alopecurus aequalis var. amurensis Ohwi), Am; assay: as above; settings: dosage 5 kg/ha; sprayed after emergence; judged 14 days after treatment
Procedure, shortened: as §5

[17] = test system: velvetleaf (Abutilon theophtasti L.), At; assay: as above; settings: dosage 5 kg/ha; sprayed after emergence; judged 14 days after treatment
Procedure, shortened: as §5

soybean plant = assay: Test Example 4: phytotoxicity to upland crop plants, treatment after emergence; settings: dosage 5 kg/ha, sprayed after emergence, judged 14 days after treatment
Procedure, shortened: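 Post-emergence foliar spray, compound at prescribed concentration, applied at defined leaf stages; weeds plus soybean/wheat grown in soil vats. Read-out: weed-killing rate and crop injury, 14 d post-treatment.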

wheat = assay: as above; settings: dosage 5 kg/ha, sprayed after emergence, judged 14 days after treatment
Procedure, shortened: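 Scores of weed-killing rate, with crop phytotoxicity, come from inspection 14 days after plants in soil vats, grown to specified leaf stages, are sprayed with a formulation holding the compound at a prescribed concentration.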

| SMILES | Pre-emergence treatment Barnyard grass (herbicidal effect) [1] | Pre-emergence treatment Bulrush (herbicidal effect) [2] | Post-emergence treatment Barnyard grass (herbicidal effect) [3] | Post-emergence treatment Bulrush (herbicidal effect) [4] | Post-emergence treatment Monochoria (herbicidal effect) [5] | Herbicidal effect Ec [6] | Herbicidal effect Vp [7] | Herbicidal effect Ga [8] | Herbicidal effect Xs [9] | Herbicidal effect Am [10] | Herbicidal effect At [11] | Phytotoxicity So (soybean plant (So)) | Phytotoxicity Wh (wheat (Wh)) | Herbicidal effect Ec [12] | Herbicidal effect Vp [13] | Herbicidal effect Ga [14] | Herbicidal effect Xs [15] | Herbicidal effect Am [16] | Herbicidal effect At [17] | Phytotoxicity So (soybean plant) | further results |
| --- | --- | --- | --- | --- | --- | --- | --- | --- | --- | --- | --- | --- | --- | --- | --- | --- | --- | --- | --- | --- | --- |
| CCCNC(=O)c1nc2c(cc1C(=O)Nc1c(CC)ccc(Cl)c1CC)nc(C)n2C [compound 1294] | 5 (Weed-killing rate is 100%.) | 5 (Weed-killing rate is 100%.) | 5 (Weed-killing rate is 100%.) | 5 (Weed-killing rate is 100%.) | 5 (Weed-killing rate is 100%.) | 5 (Weed-killing rate is 100%.) | 5 (Weed-killing rate is 100%.) | 5 (Weed-killing rate is 100%.) | 5 (Weed-killing rate is 100%.) | 5 (Weed-killing rate is 100%.) | 5 (Weed-killing rate is 100%.) | 4 (Crop-killing rate is 90-99%.) | 5 (Crop-killing rate is 100%.) | 5 (Weed-killing rate is 100%.) | 5 (Weed-killing rate is 100%.) | 5 (Weed-killing rate is 100%.) | 5 (Weed-killing rate is 100%.) | 5 (Weed-killing rate is 100%.) | 5 (Weed-killing rate is 100%.) | 4 (Crop-killing rate is 90-99%.) | Phytotoxicity Wh (wheat): 5 (Crop-killing rate is 100%.) |
| CCNC(=O)c1nc2ccccc2nc1C(=O)Nc1c(CC)ccc(Cl)c1CC [compound 1305] | 5 (Weed-killing rate is 100%.) | 5 (Weed-killing rate is 100%.) | 5 (Weed-killing rate is 100%.) | 5 (Weed-killing rate is 100%.) | 5 (Weed-killing rate is 100%.) | 5 (Weed-killing rate is 100%.) | 5 (Weed-killing rate is 100%.) | 5 (Weed-killing rate is 100%.) | 5 (Weed-killing rate is 100%.) | 5 (Weed-killing rate is 100%.) | 5 (Weed-killing rate is 100%.) | 5 (Crop-killing rate is 100%.) | 5 (Crop-killing rate is 100%.) | 5 (Weed-killing rate is 100%.) | 5 (Weed-killing rate is 100%.) | 5 (Weed-killing rate is 100%.) | 5 (Weed-killing rate is 100%.) | 5 (Weed-killing rate is 100%.) | 5 (Weed-killing rate is 100%.) | 5 (Crop-killing rate is 100%.) | Phytotoxicity Wh (wheat): 5 (Crop-killing rate is 100%.) |
| CCCNC(=O)c1nc2ccccc2nc1C(=O)Nc1c(CC)ccc(Cl)c1CC [compound 1306] | 5 (Weed-killing rate is 100%.) | 5 (Weed-killing rate is 100%.) | 5 (Weed-killing rate is 100%.) | 5 (Weed-killing rate is 100%.) | 5 (Weed-killing rate is 100%.) | 5 (Weed-killing rate is 100%.) | 5 (Weed-killing rate is 100%.) | 5 (Weed-killing rate is 100%.) | 5 (Weed-killing rate is 100%.) | 5 (Weed-killing rate is 100%.) | 5 (Weed-killing rate is 100%.) | 5 (Crop-killing rate is 100%.) | 5 (Crop-killing rate is 100%.) | 5 (Weed-killing rate is 100%.) | 5 (Weed-killing rate is 100%.) | 5 (Weed-killing rate is 100%.) | 5 (Weed-killing rate is 100%.) | 5 (Weed-killing rate is 100%.) | 5 (Weed-killing rate is 100%.) | 5 (Crop-killing rate is 100%.) | Phytotoxicity Wh (wheat): 5 (Crop-killing rate is 100%.) |
| CCc1ccc(Cl)c(CC)c1NC(=O)c1nc2ccccc2nc1C(=O)NCC(C)C [compound 1311] | 5 (Weed-killing rate is 100%.) | 5 (Weed-killing rate is 100%.) | 5 (Weed-killing rate is 100%.) | 5 (Weed-killing rate is 100%.) | 5 (Weed-killing rate is 100%.) | 5 (Weed-killing rate is 100%.) | 5 (Weed-killing rate is 100%.) | 5 (Weed-killing rate is 100%.) | 5 (Weed-killing rate is 100%.) | 5 (Weed-killing rate is 100%.) | 5 (Weed-killing rate is 100%.) | 5 (Crop-killing rate is 100%.) | 5 (Crop-killing rate is 100%.) | 5 (Weed-killing rate is 100%.) | 5 (Weed-killing rate is 100%.) | 5 (Weed-killing rate is 100%.) | 5 (Weed-killing rate is 100%.) | 5 (Weed-killing rate is 100%.) | 5 (Weed-killing rate is 100%.) | 5 (Crop-killing rate is 100%.) | Phytotoxicity Wh (wheat): 5 (Crop-killing rate is 100%.) |
| CCc1ccc(Cl)c(CC)c1NC(=O)c1nc2ccccc2nc1C(=O)NCC(C)(C)C [compound 1314] | 5 (Weed-killing rate is 100%.) | 5 (Weed-killing rate is 100%.) | 4 (Weed-killing rate is 90-99%.) | 4 (Weed-killing rate is 90-99%.) | 5 (Weed-killing rate is 100%.) | 5 (Weed-killing rate is 100%.) | 5 (Weed-killing rate is 100%.) | 4 (Weed-killing rate is 90-99%.) | 4 (Weed-killing rate is 90-99%.) | 5 (Weed-killing rate is 100%.) | 5 (Weed-killing rate is 100%.) | 3 (Crop-killing rate is 70-89%.) | 4 (Crop-killing rate is 90-99%.) | 5 (Weed-killing rate is 100%.) | 5 (Weed-killing rate is 100%.) | 4 (Weed-killing rate is 90-99%.) | 4 (Weed-killing rate is 90-99%.) | 5 (Weed-killing rate is 100%.) | 5 (Weed-killing rate is 100%.) | 4 (Crop-killing rate is 90-99%.) | Phytotoxicity Wh (wheat): 4 (Crop-killing rate is 90-99%.) |
